Series [1] is described as follows: Cytotoxicity evaluation (cell number in Coulter after 96 hours). Format: cell-based. Conditions: human. As to the method:
(§1) The cellular lines utilized in this study were: H9, T lymphocytes, CD4+, permissive for the HIV replication but partially resistant to its cytopathic effect; • H9/IIIB, H9 lymphocytes chronically infected by HTLV/IIIB virus; • MT4 and C8166, T lymphocytes lines, CD4+ permissive for HIV replication. In C8166 the virus induces a cytopathic effect which results in the formation of syncytia easily visible at the optical microscope.
(§2) All the lymphoid lines were cultured in RPMI 1640 containing 10 % of non decomplemented fetal calf serum (FCS), penicillin 100U/mL and streptomycin 100 µg/mL and incubated at 37 °C in 5% CO₂.
For the cytotoxicity evaluation, the cells were resuspended in a culture medium at a density of 1 x 10⁵/mL, were incubated in the absence or in the presence of various concentration of the compounds to be studied and their number was determined in Coulter after 96 hours of incubation at 37 °C.

The test system of series [2] is HIV-1. Nature of the series: Inhibition of infecting HIV production in C8166 cells (end point titration). The class given is cell-based. To be noted: C8166 cells; compound alone; Table 2; read-out: ED90 (the source's name). The protocol:
as §1, §2
(§3) HIV virus was obtained by H9/IIIB cells surnatant taken at the end of their exponential growth.
(§4) The titre of several stock preparations was comprised between 2 and 5 x 10⁵ Cell Culture Infection Dose 50 (CCID50)/mL.
(§5) For the evaluation of the anti-HIV activity the inhibition of infecting HIV production was determined as follows.
(§6) C8166 or MT4 cells sown at a density of 1 x 10⁶ cells/ml, were infected with a multiplicity of infection (m.o.i.) comprised between 0.05 and 0.02 CCID50/cell. After two hours of incubation at 37 °C and subsequent removal of the inoculum, the cells were washed three times and resuspended at a density of 1 x 10⁵ cells/ml. in the absence or in the presence of the compounds to be investigated.
(§7) After 4 days of incubation at 37 °C the presence of syncytia was evaluated at the optical microscope and the quantity of infecting HIV present in the surnatant of the cultures was determined by end point titration.
(§8) HIV titration was carried out in C8166 cells sown at a density of 1 x 10⁵ cells/mL/well, by the limit dilution method (dilution ratio 1:2, every dilution being sown in quadruplicate).
(§9) After four days of incubation, the syncytia presence was evaluated at the microscope and the viral titre was calculated by the Reed and Muench method.

The subject of series [3] is HIV-1. The experiment in a line: Inhibition of infecting HIV production in MT4 cells (end point titration). The class given is cell-based. Conditions: MT4 cells; compound alone; Table 2; read-out: ED90 (the source's name). As to the method:
as §1, §2, §3, §4, §5, §6, §7, §8, §9

A further series has as its system human T lymphocytes. Conditions: G. Ahluwalia et al. 1987; cited from earlier work.

For the molecule `OC[C@@H]1CC[C@H](n2cnc3c(O)ncnc32)O1` [ddIno, 2',3'-didesoxy-inosine, reference compound], the CC50 at 96 h in series [1] (c8166 cells) and in series [1] (mt4 cells) was more than 1000 µM in each case. The MNTC at 96 h was more than 1 mM in series [1] (c8166 cells, MNTD); not below 1 mM in series [1] (c8166 cells, maxima non cytotoxic doses (MNTD)); more than 1 mM in series [1] (mt4 cells, MNTD); not below 1 mM in series [1] (mt4 cells, maxima non cytotoxic doses (MNTD)). Moreover, the EC90 with HIV-1 [2] is 28 µM; in the series with HIV-1 [3], 11 µM. The “entry into the cells, less efficient than that of ddAdo” value in the series on human T lymphocytes is recorded as 4-6 time.
